In patent US8592456B2 (4SC Discovery GmbH, priority 2011, dated 2013) one finds IC50 data, which are given here for 30 compounds.

The subject of the assay is PBMC (T cell proliferation). As to the kind of experiment: T cell proliferation assay, PHA-stimulated human PBMC (BrdU ELISA). Format: cell-based. As to conditions: human PBMC, 2 μg/ml PHA, 48 hours, BrdU; read-out: D: IC50 (Tcell proliferation). The procedure, abridged:
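BrdU ELISA readout of proliferation at 48 hours. Cells: human PBMC from healthy donors in 10% dialyzed FCS/RPMI1640, 1×10^5 per well, activated by 2 μg/ml phytohaemagglutinin in the presence of compound.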
(In general: Uptake of a labelled nucleoside into DNA is a usual measure of proliferation.)
As to `CON(C)C(=O)c1c(-c2c(F)cccc2Cl)noc1-c1cnn(-c2cccnc2)c1C(F)(F)F` [Example B-56, 3-(2-chloro-6-fluorophenyl)-N-methoxy-N-methyl-5-(1-(pyridin-3-yl)-5-(trifluoromethyl)-1H-pyrazol-4-yl)isoxazole-4-carboxamide], the IC50 was in the range of 1000 to 10000 nM.

Consider `O=C(c1c(-c2c(F)cccc2Cl)noc1-c1cnn(-c2ccncc2)c1C(F)(F)F)N1CCCO1` [Example B-57, (3-(2-chloro-6-fluorophenyl)-5-(1-(pyridin-4-yl)-5-(trifluoromethyl)-1H-pyrazol-4-yl)isoxazol-4-yl)(isoxazolidin-2-yl)methanone], for which the IC50 was in the range of 1000 to 10000 nM.

In the case of `CON(C)C(=O)c1c(-c2c(F)cccc2Cl)noc1-c1cnn(-c2ccncc2)c1C(F)(F)F` [Example B-59, 3-(2-chloro-6-fluorophenyl)-N-methoxy-N-methyl-5-(1-(pyridin-4-yl)-5-(trifluoromethyl)-1H-pyrazol-4-yl)isoxazole-4-carboxamide], the IC50 lay in the range of 1000 to 10000 nM.

For the compound `CC(C)OC(=O)c1c(-c2c(F)cccc2Cl)noc1-c1cnn(-c2ccccc2Cl)c1C(F)(F)F` [Example B-60], the IC50 was 1000 to 10000 nM.

For the compound `CC(C)OC(=O)c1c(-c2c(F)cccc2Cl)noc1-c1cnn(-c2cccnc2)c1C(F)(F)F` [Example B-61, isopropyl 3-(2-chloro-6-fluorophenyl)-5-(1-(pyridin-3-yl)-5-(trifluoromethyl)-1H-pyrazol-4-yl)isoxazole-4-carboxylate], the IC50 was in the range of 10 to 100 nM.

For the compound `O=C(c1c(-c2ccccc2Cl)noc1-c1cnn(-c2cccc(Cl)c2)c1C(F)(F)F)N1CCCO1` [Example B-62, (3-(2-chlorophenyl)-5-(1-(3-chlorophenyl)-5-(trifluoromethyl)-1H-pyrazol-4-yl)isoxazol-4-yl)(isoxazolidin-2-yl)methanone], the IC50 fell in the range of 10 to 100 nM.

On to `CNC(=O)c1c(-c2ccccc2Cl)noc1-c1cnn(-c2cccc(Cl)c2)c1C(F)(F)F` [Example B-63, 3-(2-chlorophenyl)-5-(1-(3-chlorophenyl)-5-(trifluoromethyl)-1H-pyrazol-4-yl)-N-methylisoxazole-4-carboxamide], for which the IC50 fell in the range of 100 to 1000 nM.

Regarding `CON(C)C(=O)c1c(-c2ccccc2Cl)noc1-c1cnn(-c2cccc(Cl)c2)c1C(F)(F)F` [Example B-64, 3-(2-chlorophenyl)-5-(1-(3-chlorophenyl)-5-(trifluoromethyl)-1H-pyrazol-4-yl)-N-methoxy-N-methylisoxazole-4-carboxamide], the IC50 was 100 to 1000 nM.

On to `COC(=O)c1c(-c2c(F)cccc2Cl)noc1-c1cnn(-c2cccnc2)c1C(F)(F)F` [Example B-67, methyl 3-(2-chloro-6-fluorophenyl)-5-(1-(pyridin-3-yl)-5-(trifluoromethyl)-1H-pyrazol-4-yl)isoxazole-4-carboxylate], for which the IC50 lay in the range of 10 to 100 nM.

For the compound `CSC(=O)c1c(-c2c(F)cccc2Cl)noc1-c1cnn(-c2cccnc2)c1C(F)(F)F` [Example B-68, S-methyl 3-(2-chloro-6-fluorophenyl)-5-(1-(pyridin-3-yl)-5-(trifluoromethyl)-1H-pyrazol-4-yl)isoxazole-4-carbothioate], the IC50 was 10 to 100 nM.

`COC(=O)c1c(-c2c(F)cccc2Cl)noc1-c1cnn(-c2ccncc2)c1C(F)(F)F` [Example B-69, methyl 3-(2-chloro-6-fluorophenyl)-5-(1-(pyridin-4-yl)-5-(trifluoromethyl)-1H-pyrazol-4-yl)isoxazole-4-carboxylate]: the IC50 lay within 10 to 100 nM.

Regarding `CCOC(=O)c1c(-c2c(F)cccc2Cl)noc1-c1cnn(-c2cccc(NC(C)=O)c2)c1C(F)(F)F` [Example B-70, ethyl 5-(1-(3-acetamidophenyl)-5-(trifluoromethyl)-1H-pyrazol-4-yl)-3-(2-chloro-6-fluorophenyl)isoxazole-4-carboxylate], the IC50 lay within 10 to 100 nM.

`COC(=O)c1c(-c2ccccc2Cl)noc1-c1cnn(-c2cccc(Cl)c2)c1C(F)(F)F` [Example B-71, methyl 3-(2-chlorophenyl)-5-(1-(3-chlorophenyl)-5-(trifluoromethyl)-1H-pyrazol-4-yl)isoxazole-4-carboxylate]: the IC50 is under 10 nM.

Turning to `CCOC(=O)c1c(-c2c(F)cccc2Cl)noc1-c1cnn(-c2ccccc2Br)c1C(F)(F)F` [Example B-72, ethyl 5-(1-(2-bromophenyl)-5-(trifluoromethyl)-1H-pyrazol-4-yl)-3-(2-chloro-6-fluorophenyl)isoxazole-4-carboxylate], the IC50 was in the range of 100 to 1000 nM.

For `CC(C)OC(=O)c1c(-c2c(F)cccc2Cl)noc1-c1cnn(-c2cccc(S(N)(=O)=O)c2)c1C(F)(F)F` [Example B-73, isopropyl 3-(2-chloro-6-fluorophenyl)-5-(1-(3-sulfamoylphenyl)-5-(trifluoromethyl)-1H-pyrazol-4-yl)isoxazole-4-carboxylate], the IC50 is 1000 to 10000 nM.

As to `CON(C)C(=O)c1c(-c2c(F)cccc2Cl)noc1-c1cnn(-c2ccccc2Br)c1C(F)(F)F` [Example B-74, 5-(1-(2-bromophenyl)-5-(trifluoromethyl)-1H-pyrazol-4-yl)-3-(2-chloro-6-fluorophenyl)-N-methoxy-N-methylisoxazole-4-carboxamide], the IC50 lay within 1000 to 10000 nM.

`COC(=O)c1c(-c2c(Cl)cccc2Cl)noc1-c1cnn(-c2cccc(Cl)c2)c1C(F)(F)F` [Example B-75, methyl 5-(1-(3-chlorophenyl)-5-(trifluoromethyl)-1H-pyrazol-4-yl)-3-(2,6-dichlorophenyl)isoxazole-4-carboxylate]: the IC50 is under 10 nM.

Regarding `COC(=O)c1c(-c2ccc(Cl)cc2Cl)noc1-c1cnn(-c2cccc(Cl)c2)c1C(F)(F)F` [Example B-76, methyl 5-(1-(3-chlorophenyl)-5-(trifluoromethyl)-1H-pyrazol-4-yl)-3-(2,4-dichlorophenyl)isoxazole-4-carboxylate], the IC50 was in the range of 100 to 1000 nM.

Consider `COC(=O)c1c(-c2ccccc2F)noc1-c1cnn(-c2cccc(Cl)c2)c1C(F)(F)F` [Example B-77, methyl 5-(1-(3-chlorophenyl)-5-(trifluoromethyl)-1H-pyrazol-4-yl)-3-(2-fluorophenyl)isoxazole-4-carboxylate], for which the IC50 was in the range of 10 to 100 nM.

As to `CC(=O)Nc1cccc(-n2ncc(-c3onc(-c4c(F)cccc4Cl)c3C(=O)OC(C)C)c2C(F)(F)F)c1` [Example B-78, isopropyl 5-(1-(3-acetamidophenyl)-5-(trifluoromethyl)-1H-pyrazol-4-yl)-3-(2-chloro-6-fluorophenyl)isoxazole-4-carboxylate], the IC50 lay in the range of 100 to 1000 nM.

`CC(C)NS(=O)(=O)c1cccc(-n2ncc(-c3onc(-c4c(F)cccc4Cl)c3C(=O)OC(C)C)c2C(F)(F)F)c1` [Example B-79, isopropyl 3-(2-chloro-6-fluorophenyl)-5-(1-(3-(N-isopropylsulfamoyl)phenyl)-5-(trifluoromethyl)-1H-pyrazol-4-yl)isoxazole-4-carboxylate]: the IC50 lay in the range of 100 to 1000 nM.

In the case of `CCOC(=O)c1c(-c2c(F)cccc2Cl)noc1-c1cnn(Cc2ccccc2F)c1C(F)(F)F` [Example B-80, ethyl 3-(2-chloro-6-fluorophenyl)-5-(1-(2-fluorobenzyl)-5-(trifluoromethyl)-1H-pyrazol-4-yl)isoxazole-4-carboxylate], the IC50 was 1000 to 10000 nM.

Regarding `CCOC(=O)c1c(-c2c(F)cccc2Cl)noc1-c1cnn(CC2CCOCC2)c1C(F)(F)F` [Example B-81, ethyl 3-(2-chloro-6-fluorophenyl)-5-(1-((tetrahydro-2H-pyran-4-yl)methyl)-5-(trifluoromethyl)-1H-pyrazol-4-yl)isoxazole-4-carboxylate], the IC50 fell in the range of 100 to 1000 nM.

As to `CC(C)OC(=O)c1c(-c2c(F)cccc2Cl)noc1-c1cnn(-c2ccncc2)c1C(F)(F)F` [Example B-82, isopropyl 3-(2-chloro-6-fluorophenyl)-5-(1-(pyridin-4-yl)-5-(trifluoromethyl)-1H-pyrazol-4-yl)isoxazole-4-carboxylate], the IC50 was 10 to 100 nM.

`Fc1cccc(Cl)c1-c1noc(-c2cnn(-c3ccncc3)c2C(F)(F)F)c1Br` [Example B-83, 4-bromo-3-(2-chloro-6-fluorophenyl)-5-(1-(pyridin-4-yl)-5-(trifluoromethyl)-1H-pyrazol-4-yl)isoxazole]: the IC50 fell in the range of 1000 to 10000 nM.

In the case of `CCOC(=O)c1c(-c2c(F)cccc2Cl)noc1-c1cnn(-c2ccccn2)c1C(F)(F)F` [Example B-84, ethyl 3-(2-chloro-6-fluorophenyl)-5-(1-(pyridin-2-yl)-5-(trifluoromethyl)-1H-pyrazol-4-yl)isoxazole-4-carboxylate], the IC50 is under 10 nM.

On to `O=C(O)c1c(-c2c(F)cccc2Cl)noc1-c1cnn(Cc2ccccc2F)c1C(F)(F)F` [Example B-86, 3-(2-chloro-6-fluorophenyl)-5-(1-(2-fluorobenzyl)-5-(trifluoromethyl)-1H-pyrazol-4-yl)isoxazole-4-carboxylic acid], for which the IC50 lay within 1000 to 10000 nM.

As to `COC(=O)c1c(-c2c(F)cccc2Cl)noc1-c1cnn(-c2cccc(NC(C)=O)c2)c1C(F)(F)F` [Example B-89, 5-(1-(3-acetamidophenyl)-5-(trifluoromethyl)-1H-pyrazol-4-yl)-3-(2-chloro-6-fluorophenyl)isoxazole-4-carboxylate], the IC50 lay within 100 to 1000 nM.

For the compound `CCOC(=O)c1c(-c2c(F)cccc2Cl)noc1-c1cnn(-c2cccc([N+](=O)[O-])c2)c1C(F)(F)F` [Example B-90, ethyl 3-(2-chloro-6-fluorophenyl)-5-(1-(3-nitrophenyl)-5-(trifluoromethyl)-1H-pyrazol-4-yl)isoxazole-4-carboxylate], the IC50 lay within 10 to 100 nM.

With `COC(=O)c1c(-c2c(F)cccc2Cl)noc1-c1cnn(-c2cccc(N)c2)c1C(F)(F)F` [Example B-92, methyl 5-(1-(3-aminophenyl)-5-trifluoromethyl)-1H-pyrazol-4-yl)-3-(2-chloro-6-fluorophenyl)isoxazole-4-carboxylate], the IC50 is 10 to 100 nM.
